From patent US11628174B1, “Pharmaceutical compositions and methods for treating insomnia” (priority 2022, dated 2023)

Experiments:
REM sleep = settings: background statement; cited from earlier work
insomnia = assay: Clinical case reports: treatment of patients with insomnia; type: in vivo, human
[1] = test system: anti-IgE-induced release of prostaglandin D2 (PGD2) and leukotrienes C4/D4; release of cytokines; settings: background statement, cited from earlier work
allergic rhinitis = assay: Clinical case report: allergic rhinitis in a patient with insomnia; type: in vivo, human; settings: Example 1; ebastine 20 mg once a day, about 3 months
[2] = Clinical case reports: tolerability and side effects in patients with insomnia
Protocol: A patient had insomnia for more than 2 months before they were provided with medications.
A patient had insomnia for more than 3 months. […] After that, they were treated with the combination of ebastine (10 mg) and alprazolam (0.4 mg) daily.

SMILES: Cc1nnc2n1-c1ccc(Cl)cc1C(c1ccccc1)=NC2 [alprazolam, 8-chloro-1-methyl-6-phenyl-4H-s-triazolo[4,3-a] [1,4]benzodiazepine]
- REM latency (REM sleep): increases
- length of REM periods and frequency of REM burst activities (REM sleep): significantly decreases
- chronic insomnia along with depression, improvement (insomnia; Example 2, person, alprazolam 0.8 mg twice daily, 2 months): no improvement

SMILES: CC(C)(C(=O)O)c1ccc(C(=O)CCCN2CCC(OC(c3ccccc3)c3ccccc3)CC2)cc1 [carebastine]
- release of PGD2 ([1]; metabolite of ebastine): inhibits

SMILES: CC(C)(C)c1ccc(C(=O)CCCN2CCC(OC(c3ccccc3)c3ccccc3)CC2)cc1 [ebastine, 4-diphenylmethoxy-1-[3-(4-tert-butylbenzoyl)-propyl] piperidine]
- anti-IgE-induced release of prostaglandin D2 (PGD2) and leukotrienes C4/D4 (LTC4/D4) [1]: significantly inhibits
- release of cytokines, including GM-CSF, tumour necrosis factor-a and interleukin-8 [1]: inhibited
- allergic rhinitis improvement (allergic rhinitis): only improved marginally
- insomnia (difficulty of falling to asleep) improvement (insomnia; Example 1, person, ebastine 20 mg once a day, about 3 months): no improvement

SMILES: CN1CCN(C(=O)O[C@H]2c3nccnc3C(=O)N2c2ccc(Cl)cn2)CC1 [eszopiclone]
- tolerability (side effects of headache and dizziness) ([2]; Example 3, eszopiclone 1 mg daily for 2 weeks): could not tolerate the side effects of headache and dizziness
- tolerability (adverse reaction of headache) ([2]; Example 4, person, eszopiclone 1 mg daily for one week): could not tolerate its adverse reaction of headache

SMILES: Cc1ccc(-c2nc3ccc(C)cn3c2CC(=O)N(C)C)cc1 [zolpidem]
- tolerability (side effects of headache and dizziness) ([2]; Example 3, person, zolpidem 10 mg daily for 1 month): could not tolerate the side effects of headache and dizziness
